Source: the NIST ThermoML archive (doi:10.1016/j.jct.2008.01.017)
Numbers after ± are expanded uncertainties.

Key:
[1] = 293.15 K, 101.33 kPa, Liquid
[2] = refractive index (Na D-line) (dimensionless); settings: 293.15 K; 101.33 kPa; Liquid; Standard Abbe refractometry
[3] = excess molar enthalpy (molar enthalpy of mixing); xn = mol fraction of the nth substance listed; settings: 101 kPa, Liquid, Flow calorimetry

CCCCCCCO [heptan-1-ol]
Settings	mass density [kg/m3]	refractive index
[1]	822.3 ± 0.7	–
[2]	–	1.4245 ± 0.0007

CCCCCCCCO [octan-1-ol] + CC#N
[3]
Settings	excess molar enthalpy [kcal/mol]
298.15 K, x1 = 0.0476	0.161 ± 0.00406
298.15 K, x1 = 0.0971	0.282 ± 0.00621
298.15 K, x1 = 0.1479	0.375 ± 0.00621
298.15 K, x1 = 0.1998	0.449 ± 0.00717
298.15 K, x1 = 0.2521	0.502 ± 0.00789
298.15 K, x1 = 0.3044	0.541 ± 0.0086
298.15 K, x1 = 0.3562	0.566 ± 0.00908
298.15 K, x1 = 0.407	0.58 ± 0.00908
298.15 K, x1 = 0.471	0.583 ± 0.00932
298.15 K, x1 = 0.5316	0.565 ± 0.00884
298.15 K, x1 = 0.5882	0.539 ± 0.0086
298.15 K, x1 = 0.6879	0.459 ± 0.00741
298.15 K, x1 = 0.7685	0.369 ± 0.00598
298.15 K, x1 = 0.802	0.328 ± 0.00526
298.15 K, x1 = 0.8567	0.245 ± 0.00406
298.15 K, x1 = 0.8975	0.176 ± 0.00311
298.15 K, x1 = 0.9375	0.117 ± 0.00287
313.15 K, x1 = 0.063	0.205 ± 0.00478
313.15 K, x1 = 0.1288	0.361 ± 0.00598
313.15 K, x1 = 0.1966	0.487 ± 0.00789
313.15 K, x1 = 0.2652	0.568 ± 0.00908
313.15 K, x1 = 0.3335	0.614 ± 0.0098
313.15 K, x1 = 0.4003	0.635 ± 0.01
313.15 K, x1 = 0.4647	0.635 ± 0.01
313.15 K, x1 = 0.5259	0.62 ± 0.0098
313.15 K, x1 = 0.583	0.592 ± 0.00932
313.15 K, x1 = 0.6357	0.551 ± 0.00884
313.15 K, x1 = 0.6837	0.501 ± 0.00789
313.15 K, x1 = 0.7268	0.452 ± 0.00717
313.15 K, x1 = 0.7653	0.404 ± 0.00645
313.15 K, x1 = 0.7992	0.359 ± 0.00574
313.15 K, x1 = 0.8288	0.315 ± 0.00526
313.15 K, x1 = 0.8762	0.236 ± 0.00406
313.15 K, x1 = 0.9349	0.124 ± 0.00311
323.15 K, x1 = 0.0633	0.218 ± 0.00526
323.15 K, x1 = 0.1295	0.397 ± 0.00669
323.15 K, x1 = 0.1975	0.541 ± 0.0086
323.15 K, x1 = 0.2663	0.613 ± 0.0098
323.15 K, x1 = 0.3347	0.655 ± 0.0103
323.15 K, x1 = 0.4017	0.672 ± 0.0105
323.15 K, x1 = 0.4661	0.669 ± 0.0105
323.15 K, x1 = 0.5273	0.651 ± 0.0103
323.15 K, x1 = 0.5844	0.619 ± 0.0098
323.15 K, x1 = 0.637	0.575 ± 0.00908
323.15 K, x1 = 0.6849	0.529 ± 0.00837
323.15 K, x1 = 0.7279	0.478 ± 0.00765
323.15 K, x1 = 0.7663	0.428 ± 0.00693
323.15 K, x1 = 0.8001	0.383 ± 0.00621
323.15 K, x1 = 0.8296	0.335 ± 0.0055
323.15 K, x1 = 0.8768	0.248 ± 0.0043
323.15 K, x1 = 0.9352	0.131 ± 0.00335

CCCCCCCO [heptan-1-ol] + CC#N
[3]
Settings	excess molar enthalpy [kcal/mol]
298.15 K, x1 = 0.0529	0.141 ± 0.00335
298.15 K, x1 = 0.1128	0.261 ± 0.00454
298.15 K, x1 = 0.1738	0.365 ± 0.00598
298.15 K, x1 = 0.2352	0.435 ± 0.00693
298.15 K, x1 = 0.2962	0.485 ± 0.00765
298.15 K, x1 = 0.3561	0.516 ± 0.00813
298.15 K, x1 = 0.4143	0.53 ± 0.00837
298.15 K, x1 = 0.4701	0.532 ± 0.00837
298.15 K, x1 = 0.5231	0.523 ± 0.00837
298.15 K, x1 = 0.573	0.505 ± 0.00813
298.15 K, x1 = 0.6194	0.479 ± 0.00765
298.15 K, x1 = 0.6623	0.449 ± 0.00717
298.15 K, x1 = 0.7015	0.416 ± 0.00669
298.15 K, x1 = 0.7692	0.349 ± 0.00574
298.15 K, x1 = 0.8038	0.303 ± 0.00502
298.15 K, x1 = 0.8621	0.221 ± 0.00382
298.15 K, x1 = 0.9271	0.116 ± 0.00287
313.15 K, x1 = 0.0698	0.186 ± 0.0043
313.15 K, x1 = 0.1417	0.326 ± 0.00526
313.15 K, x1 = 0.2146	0.43 ± 0.00693
313.15 K, x1 = 0.2872	0.504 ± 0.00789
313.15 K, x1 = 0.3584	0.545 ± 0.0086
313.15 K, x1 = 0.427	0.56 ± 0.00884
313.15 K, x1 = 0.4923	0.561 ± 0.00884
313.15 K, x1 = 0.5533	0.548 ± 0.0086
313.15 K, x1 = 0.6096	0.52 ± 0.00813
313.15 K, x1 = 0.6608	0.481 ± 0.00765
313.15 K, x1 = 0.707	0.438 ± 0.00693
313.15 K, x1 = 0.7482	0.392 ± 0.00621
313.15 K, x1 = 0.7845	0.348 ± 0.00574
313.15 K, x1 = 0.8163	0.304 ± 0.00502
313.15 K, x1 = 0.8439	0.26 ± 0.0043
313.15 K, x1 = 0.8642	0.228 ± 0.00382
313.15 K, x1 = 0.9283	0.121 ± 0.00287
323.15 K, x1 = 0.0704	0.19 ± 0.00454
323.15 K, x1 = 0.1429	0.348 ± 0.00574
323.15 K, x1 = 0.2161	0.469 ± 0.00741
323.15 K, x1 = 0.2891	0.541 ± 0.0086
323.15 K, x1 = 0.3605	0.574 ± 0.00908
323.15 K, x1 = 0.4293	0.585 ± 0.00932
323.15 K, x1 = 0.4946	0.58 ± 0.00908
323.15 K, x1 = 0.5555	0.565 ± 0.00884
323.15 K, x1 = 0.6117	0.54 ± 0.0086
323.15 K, x1 = 0.6629	0.498 ± 0.00789
323.15 K, x1 = 0.7089	0.452 ± 0.00717
323.15 K, x1 = 0.7499	0.404 ± 0.00645
323.15 K, x1 = 0.786	0.359 ± 0.00574
323.15 K, x1 = 0.8177	0.315 ± 0.00526
323.15 K, x1 = 0.8451	0.273 ± 0.00454
323.15 K, x1 = 0.8642	0.242 ± 0.00406
323.15 K, x1 = 0.9283	0.133 ± 0.00311

CCCCCCCCO [octan-1-ol]
Settings	mass density [kg/m3]	refractive index
[1]	825.8 ± 0.6	–
[2]	–	1.4293 ± 0.0007

CC#N [acetonitrile]
Settings	mass density [kg/m3]
[1], Vibrating tube method	784.6 ± 0.2

Settings	refractive index
[2]	1.3441 ± 0.0007
